{"source": "paper PMC5218480", "about": "(PLoS ONE, 2017)", "tested_on": "MV-4-11 cells", "assay": "Gene expression microarray analysis (Affymetrix PrimeView) and GSEA", "format": "cell-based, human", "parameters": "RFU PODN (11730768_x_at) / Fold change /veh PODN (11730768_x_at) / RFU LINC00158 (11744669_a_at) / Fold change /veh LINC00158 (11744669_a_at) / RFU DUSP10 (11751237_a_at) / Fold change /veh DUSP10 (11751237_a_at) / RFU ID3 (11757404_x_at) / Fold change /veh ID3 (11757404_x_at) / RFU PLEKHG5 (11737974_s_at) / Fold change /veh PLEKHG5 (11737974_s_at) / RFU LRRC4B (11730491_at) / Fold change /veh LRRC4B (11730491_at) / RFU GIMAP4 (11747438_a_at) / Fold change /veh GIMAP4 (11747438_a_at) / RFU KRT8 (11758183_x_at) / Fold change /veh KRT8 (11758183_x_at) / RFU CNN1 (11734310_a_at) / Fold change /veh CNN1 (11734310_a_at) / RFU VPS37D (11726825_at) / Fold change /veh VPS37D (11726825_at) / RFU C10orf10 (11716522_x_at) / Fold change /veh C10orf10 (11716522_x_at) / RFU KIR2DL2 /// KIR2DL4 /// KIR2DL5A /// KIR2DL5B /// KIR2DS1 /// KIR2DS2 /// KIR2DS3 /// KIR2DS4 /// KIR3DL3 /// KIR3DL3 /// KIR3DS1 (11738374_at) / Fold change /veh KIR2DL2 /// KIR2DL4 /// KIR2DL5A /// KIR2DL5B /// KIR2DS1 /// KIR2DS2 /// KIR2DS3 /// KIR2DS4 /// KIR3DL3 /// KIR3DL3 /// KIR3DS1 (11738374_at) / RFU C1QL1 (11718748_at) / Fold change /veh C1QL1 (11718748_at) / RFU TMPRSS4 (11747572_a_at) / Fold change /veh TMPRSS4 (11747572_a_at) / RFU HAMP (11756126_x_at) / Fold change /veh HAMP (11756126_x_at) / RFU RNFT2 (11725882_a_at) / Fold change /veh RNFT2 (11725882_a_at) / RFU NR4A2 (11747474_a_at) / Fold change /veh NR4A2 (11747474_a_at) / RFU ABCC12 (11746883_a_at) / Fold change /veh ABCC12 (11746883_a_at) / RFU TMEM136 (11760407_x_at) / Fold change /veh TMEM136 (11760407_x_at) / RFU CLDN22 /// WWC2 (11732394_at) / Fold change /veh CLDN22 /// WWC2 (11732394_at) / RFU HLA-DPB1 (11760878_x_at) / Fold change /veh HLA-DPB1 (11760878_x_at) / RFU SPINT1 (11716480_a_at) / Fold change /veh SPINT1 (11716480_a_at) / RFU GAP43 (11754022_s_at) / Fold change /veh GAP43 (11754022_s_at) / RFU A4GNT (11735810_at) / Fold change /veh A4GNT (11735810_at) / RFU PRB3 (11715151_x_at) / Fold change /veh PRB3 (11715151_x_at) / RFU TUBB4B (11761932_at) / Fold change /veh TUBB4B (11761932_at) / RFU CAPN14 (11732068_a_at) / Fold change /veh CAPN14 (11732068_a_at) / RFU TMCC2 (11721928_a_at) / Fold change /veh TMCC2 (11721928_a_at) / RFU IRGQ (11745062_a_at) / Fold change /veh IRGQ (11745062_a_at) / RFU FAM174B (11720279_a_at) / Fold change /veh FAM174B (11720279_a_at) / RFU TMPRSS4 (11748680_a_at) / Fold change /veh TMPRSS4 (11748680_a_at) / RFU FAM212B (11763350_a_at) / Fold change /veh FAM212B (11763350_a_at) / RFU PLEKHG5 (11743358_a_at) / Fold change /veh PLEKHG5 (11743358_a_at) / RFU ZSCAN30 (11745921_a_at) / Fold change /veh ZSCAN30 (11745921_a_at) / RFU CMKLR1 (11741424_a_at) / Fold change /veh CMKLR1 (11741424_a_at) / RFU LOC101060620 /// MAPK8IP1 (11723275_at) / Fold change /veh LOC101060620 /// MAPK8IP1 (11723275_at) / RFU SPTSSB (11747773_x_at) / Fold change /veh SPTSSB (11747773_x_at) / RFU PRSS12 (11739890_at) / Fold change /veh PRSS12 (11739890_at) / RFU BIN1 (11741810_x_at) / Fold change /veh BIN1 (11741810_x_at) / RFU WNT11 (11732464_a_at) / Fold change /veh WNT11 (11732464_a_at) / RFU C10orf10 (11716521_a_at) / Fold change /veh C10orf10 (11716521_a_at) / RFU C5orf56 (11738089_at) / Fold change /veh C5orf56 (11738089_at) / RFU CYB561 (11721691_x_at) / Fold change /veh CYB561 (11721691_x_at) / RFU ANKRD19P (11752326_a_at) / Fold change /veh ANKRD19P (11752326_a_at) / RFU OR2T12 /// OR2T33 /// OR2T8 (11738714_s_at) / Fold change /veh OR2T12 /// OR2T33 /// OR2T8 (11738714_s_at) / RFU VCAN (11748164_a_at) / Fold change /veh VCAN (11748164_a_at) / RFU JSRP1 (11732532_at) / Fold change /veh JSRP1 (11732532_at) / RFU KRTAP10-11 (11738290_x_at) / Fold change /veh KRTAP10-11 (11738290_x_at) / RFU MYO3A (11730013_a_at) / Fold change /veh MYO3A (11730013_a_at) / RFU EBF3 (11725865_a_at) / Fold change /veh EBF3 (11725865_a_at) / RFU CAMK2N1 (11719241_x_at) / Fold change /veh CAMK2N1 (11719241_x_at) / RFU C5orf56 (11738088_a_at) / Fold change /veh C5orf56 (11738088_a_at) / RFU OLFML3 (11715873_a_at) / Fold change /veh OLFML3 (11715873_a_at) / RFU LOC100653217 /// NTM (11731650_a_at) / Fold change /veh LOC100653217 /// NTM (11731650_a_at) / RFU MAPK11 (11762145_a_at) / Fold change /veh MAPK11 (11762145_a_at) / RFU FIZ1 (11724087_x_at) / Fold change /veh FIZ1 (11724087_x_at) / RFU OASL (11726364_x_at) / Fold change /veh OASL (11726364_x_at) / RFU SOX15 (11748057_x_at) / Fold change /veh SOX15 (11748057_x_at) / RFU CD79A (11719716_a_at) / Fold change /veh CD79A (11719716_a_at) / RFU HIST1H1D (11736915_at) / Fold change /veh HIST1H1D (11736915_at) / RFU CASKIN2 (11723855_a_at) / Fold change /veh CASKIN2 (11723855_a_at) / RFU LOC730098 (11760151_x_at) / Fold change /veh LOC730098 (11760151_x_at) / RFU OR4N2 (11742367_at) / Fold change /veh OR4N2 (11742367_at) / RFU PRRT2 (11749266_a_at) / Fold change /veh PRRT2 (11749266_a_at) / RFU SNX32 (11753110_a_at) / Fold change /veh SNX32 (11753110_a_at) / RFU CDHR5 (11726645_a_at) / Fold change /veh CDHR5 (11726645_a_at) / RFU RCAN1 (11760418_a_at) / Fold change /veh RCAN1 (11760418_a_at) / RFU FAM167A (11723789_a_at) / Fold change /veh FAM167A (11723789_a_at) / RFU FAM26E (11764081_at) / Fold change /veh FAM26E (11764081_at) / RFU ISYNA1 (11749810_s_at) / Fold change /veh ISYNA1 (11749810_s_at) / RFU ACY1 (11761880_at) / Fold change /veh ACY1 (11761880_at) / RFU 11764098_at / Fold change /veh 11764098_at / RFU SAMD14 (11745864_x_at) / Fold change /veh SAMD14 (11745864_x_at) / RFU NPB (11741838_a_at) / Fold change /veh NPB (11741838_a_at) / RFU TMPRSS6 (11731388_a_at) / Fold change /veh TMPRSS6 (11731388_a_at) / RFU KRTAP10-2 (11738614_at) / Fold change /veh KRTAP10-2 (11738614_at) / RFU ARHGAP8 /// PRR5-ARHGAP8 (11727945_x_at) / Fold change /veh ARHGAP8 /// PRR5-ARHGAP8 (11727945_x_at) / RFU KRTAP5-7 /// NADSYN1 (11734609_at) / Fold change /veh KRTAP5-7 /// NADSYN1 (11734609_at) / RFU RASL12 (11751679_a_at) / Fold change /veh RASL12 (11751679_a_at) / RFU CDKN2B (11736163_a_at) / Fold change /veh CDKN2B (11736163_a_at) / RFU PRF1 (11729649_at) / Fold change /veh PRF1 (11729649_at) / RFU, ZNF638 /// ZNF638-IT1 / Fold change vs veh, ZNF638 /// ZNF638-IT1 / RFU, PANK3 / Fold change vs veh, PANK3 / RFU, SH3YL1 / Fold change vs veh, SH3YL1 / RFU, ZEB2 / Fold change vs veh, ZEB2 / RFU, NRIP1 / Fold change vs veh, NRIP1 / RFU, PTTG1IP / Fold change vs veh, PTTG1IP / RFU, CAPN2 / Fold change vs veh, CAPN2 / RFU, MED14 / Fold change vs veh, MED14 / RFU, SNORA58 / Fold change vs veh, SNORA58 / RFU, C1orf63 / Fold change vs veh, C1orf63 / RFU, LRRFIP1 / Fold change vs veh, LRRFIP1 / RFU, NDUFAF7 / Fold change vs veh, NDUFAF7 / RFU, SLC12A2 / Fold change vs veh, SLC12A2 / RFU, IBTK / Fold change vs veh, IBTK / RFU, ESF1 / Fold change vs veh, ESF1 / Fold change vs veh, TMEM50B / RFU, TAOK1 / Fold change vs veh, TAOK1 / RFU, ACBD3 / Fold change vs veh, ACBD3 / RFU, TMA16 / Fold change vs veh, TMA16 / RFU, RWDD3 / Fold change vs veh, RWDD3 / RFU, BCAT1 / Fold change vs veh, BCAT1 / RFU, EDEM3 / Fold change vs veh, EDEM3 / RFU, TMEM33 / Fold change vs veh, TMEM33 / RFU, WDR75 / Fold change vs veh, WDR75 / RFU, AHCTF1 / Fold change vs veh, AHCTF1 / RFU, TFRC / Fold change vs veh, TFRC / RFU, ZDHHC17 / Fold change vs veh, ZDHHC17 / RFU, NOM1 / Fold change vs veh, NOM1 / RFU, ARL8B / Fold change vs veh, ARL8B / RFU, ZBTB11 / Fold change vs veh, ZBTB11 / RFU, TAMM41 / Fold change vs veh, TAMM41 / RFU, KIAA1704 /// LOC100996395 / Fold change vs veh, KIAA1704 /// LOC100996395 / RFU, ING1 / Fold change vs veh, ING1 / RFU, TRMT61B / Fold change vs veh, TRMT61B / RFU, FUBP3 / Fold change vs veh, FUBP3 / RFU, TP53 / Fold change vs veh, TP53 / RFU, TNKS2 / Fold change vs veh, TNKS2 / RFU, ZFP14 / Fold change vs veh, ZFP14 / RFU, ACTR2 / Fold change vs veh, ACTR2 / RFU, PPP3R1 / Fold change vs veh, PPP3R1 / RFU, PIK3R1 / Fold change vs veh, PIK3R1 / RFU, HNRNPA1 / Fold change vs veh, HNRNPA1 / RFU, RNF170 / Fold change vs veh, RNF170 / RFU, ZNF28 / Fold change vs veh, ZNF28 / RFU, RNGTT / Fold change vs veh, RNGTT / RFU, OGT / Fold change vs veh, OGT / RFU, BRD1 / Fold change vs veh, BRD1 / RFU, MARS / Fold change vs veh, MARS / RFU, ZNF655 / Fold change vs veh, ZNF655 / RFU, FAHD1 / Fold change vs veh, FAHD1 / RFU, BDP1 / Fold change vs veh, BDP1 / RFU, LRRCC1 / Fold change vs veh, LRRCC1 / RFU, ARID1A / Fold change vs veh, ARID1A / RFU, ZNF146 / Fold change vs veh, ZNF146 / RFU, ZNF330 / Fold change vs veh, ZNF330 / RFU, GPN3 / Fold change vs veh, GPN3 / RFU, C9orf123 / Fold change vs veh, C9orf123 / RFU, N4BP2L2 / Fold change vs veh, N4BP2L2 / RFU, ARFIP1 / Fold change vs veh, ARFIP1 / RFU, FAM179B / Fold change vs veh, FAM179B / RFU, BCL10 / Fold change vs veh, BCL10 / RFU, UHRF1BP1L / Fold change vs veh, UHRF1BP1L / RFU, BET1 / Fold change vs veh, BET1 / RFU, CNOT2 / Fold change vs veh, CNOT2 / RFU, ZNF268 / Fold change vs veh, ZNF268 / Fold change vs veh, ZNF507 / RFU, DGCR2 / Fold change vs veh, DGCR2 / RFU, WDSUB1 / Fold change vs veh, WDSUB1 / Fold change vs veh, HSP90B1 /// MIR3652 / RFU, ADSS / Fold change vs veh, ADSS / RFU, GK / Fold change vs veh, GK / RFU, ZNF148 / Fold change vs veh, ZNF148 / RFU, TAF9 / Fold change vs veh, TAF9 / RFU, SLC1A5 / Fold change vs veh, SLC1A5 / RFU, SLMO2 / Fold change vs veh, SLMO2 / RFU, ABCC4 / Fold change vs veh, ABCC4 / RFU, LOC101060439 /// RAP1B / Fold change vs veh, LOC101060439 /// RAP1B / RFU, RFX7 / Fold change vs veh, RFX7 / RFU, GTPBP10 / Fold change vs veh, GTPBP10 / RFU, CNEP1R1 / Fold change vs veh, CNEP1R1 / RFU, BIVM-ERCC5 /// ERCC5 / Fold change vs veh, BIVM-ERCC5 /// ERCC5 / RFU, ILF3 / Fold change vs veh, ILF3 / RFU 11762660_at / Fold change /veh 11762660_at / RFU VCAN (11757783_s_at) / Fold change /veh VCAN (11757783_s_at) / RFU DDX43 (11728927_at) / Fold change /veh DDX43 (11728927_at) / RFU KRT8 (11758188_x_at) / Fold change /veh KRT8 (11758188_x_at) / RFU NKD1 (11759106_at) / Fold change /veh NKD1 (11759106_at) / RFU SRD5A1 (11742802_a_at) / Fold change /veh SRD5A1 (11742802_a_at) / RFU TPSAB1 /// TPSB2 (11721975_s_at) / Fold change /veh TPSAB1 /// TPSB2 (11721975_s_at) / RFU GSTM3 (11746129_a_at) / Fold change /veh GSTM3 (11746129_a_at) / RFU IL23R (11737362_x_at) / Fold change /veh IL23R (11737362_x_at) / RFU TMEM51 (11727254_a_at) / Fold change /veh TMEM51 (11727254_a_at) / RFU PIWIL2 (11732686_x_at) / Fold change /veh PIWIL2 (11732686_x_at) / RFU ORM1 (11744905_x_at) / Fold change /veh ORM1 (11744905_x_at) / RFU CCDC152 (11743942_at) / Fold change /veh CCDC152 (11743942_at) / RFU ECM1 (11717891_a_at) / Fold change /veh ECM1 (11717891_a_at) / RFU IL23R (11748794_a_at) / Fold change /veh IL23R (11748794_a_at) / RFU TNFAIP8L3 (11732012_x_at) / Fold change /veh TNFAIP8L3 (11732012_x_at) / RFU MBOAT4 (11741988_at) / Fold change /veh MBOAT4 (11741988_at) / RFU 11764193_at / Fold change /veh 11764193_at / RFU TMEM53 (11763286_at) / Fold change /veh TMEM53 (11763286_at) / RFU MAGEB2 (11727129_at) / Fold change /veh MAGEB2 (11727129_at) / RFU TMEM200A (11744735_a_at) / Fold change /veh TMEM200A (11744735_a_at) / RFU CCDC152 (11751479_a_at) / Fold change /veh CCDC152 (11751479_a_at) / RFU FAM211A (11726209_a_at) / Fold change /veh FAM211A (11726209_a_at) / RFU RGS16 (11746705_a_at) / Fold change /veh RGS16 (11746705_a_at) / RFU VCAN (11755009_s_at) / Fold change /veh VCAN (11755009_s_at) / RFU RHOB (11743442_s_at) / Fold change /veh RHOB (11743442_s_at) / RFU RGS16 (11720943_a_at) / Fold change /veh RGS16 (11720943_a_at) / RFU RGS16 (11720944_at) / Fold change /veh RGS16 (11720944_at) / RFU, VPS4B / Fold change vs veh, VPS4B / RFU, CREB1 / Fold change vs veh, CREB1 / RFU, DNAJC13 / Fold change vs veh, DNAJC13 / RFU, GNAQ / Fold change vs veh, GNAQ / RFU, CDK5R1 / Fold change vs veh, CDK5R1 / RFU, ZRANB3 / Fold change vs veh, ZRANB3 / RFU, CUL4A / Fold change vs veh, CUL4A / RFU, CCNY / Fold change vs veh, CCNY / RFU, UFL1 / Fold change vs veh, UFL1 / RFU, COG3 / Fold change vs veh, COG3 / RFU, DIAPH2 / Fold change vs veh, DIAPH2 / RFU, SKA2 / Fold change vs veh, SKA2 / RFU, AFF3 / Fold change vs veh, AFF3 / RFU, LMF1 / Fold change vs veh, LMF1 / RFU, IPO11 / Fold change vs veh, IPO11 / RFU, DFFB / Fold change vs veh, DFFB / RFU, FOXP1 / Fold change vs veh, FOXP1 / RFU, CARD8 / Fold change vs veh, CARD8 / RFU, STRN3 / Fold change vs veh, STRN3 / RFU, ADK / Fold change vs veh, ADK / RFU, RASSF2 / Fold change vs veh, RASSF2 / RFU, WIPF1 / Fold change vs veh, WIPF1 / RFU, LARP1B / Fold change vs veh, LARP1B / RFU, RASA1 / Fold change vs veh, RASA1 / RFU, RB1 / Fold change vs veh, RB1 / RFU, PPFIA1 / Fold change vs veh, PPFIA1 / RFU, MAT2A / Fold change vs veh, MAT2A / RFU, CCT5 / Fold change vs veh, CCT5 / RFU, WDR92 / Fold change vs veh, WDR92 / RFU, CUX1 / Fold change vs veh, CUX1 / RFU, TTC7A / Fold change vs veh, TTC7A / RFU, TMEM135 / Fold change vs veh, TMEM135 / RFU, DEPTOR / Fold change vs veh, DEPTOR / RFU, CPM / Fold change vs veh, CPM / RFU, DNAJB6 / Fold change vs veh, DNAJB6 / RFU, CACNA2D3 / Fold change vs veh, CACNA2D3 / RFU, DTX4 / Fold change vs veh, DTX4 / RFU, TFCP2 / Fold change vs veh, TFCP2 / RFU, GMCL1 /// GMCL1P1 / Fold change vs veh, GMCL1 /// GMCL1P1 / RFU, AEBP2 / Fold change vs veh, AEBP2 / RFU, SNHG1 /// SNORD22 /// SNORD25 /// SNORD26 /// SNORD27 /// SNORD28 /// SNORD29 /// SNORD31 / Fold change vs veh, SNHG1 /// SNORD22 /// SNORD25 /// SNORD26 /// SNORD27 /// SNORD28 /// SNORD29 /// SNORD31 / Fold change (Aza/veh), C12orf56 (ProbeSet 11735607_a_at) / Fold change (ACY-1035/veh), C12orf56 (ProbeSet 11735607_a_at) / Fold change (Aza/veh), FGFR1OP (ProbeSet 11751329_s_at) / Fold change (ACY-1035/veh), FGFR1OP (ProbeSet 11751329_s_at) / Fold change (Aza/veh), VPS36 (ProbeSet 11739960_a_at) / Fold change (ACY-1035/veh), VPS36 (ProbeSet 11739960_a_at) / RFU SYPL1 (11715823_x_at) / Fold change /veh SYPL1 (11715823_x_at) / RFU IGFBP7 (11715501_s_at) / Fold change /veh IGFBP7 (11715501_s_at) / RFU REEP3 (11722064_at) / Fold change /veh REEP3 (11722064_at) / RFU IGLL1 (11728026_x_at) / Fold change /veh IGLL1 (11728026_x_at): dose or concentration left out as unconfirmed", "settings": "MV-4-11 cells, 48 hours", "data": [{"smiles": "Nc1ncn([C@@H]2O[C@H](CO)[C@@H](O)[C@H]2O)c(=O)n1", "note": "[azacitidine]", "values": [{"measurement": "Fold change /veh IL23R (11748794_a_at)", "value": 1.48}]}]}
